Test results taken from patent publication US9187411B2, “Leukotriene B4 antagonist compound” (Eli Lilly and Company, priority 2012, dated 2015).

Target: T1, PPARα (Homo sapiens, UniProt Q07869)
T1 construct: made in house; host or cells: Sf9 insect cells (baculovirus), crude cell lysate
T1 sequence (Q07869 1-468): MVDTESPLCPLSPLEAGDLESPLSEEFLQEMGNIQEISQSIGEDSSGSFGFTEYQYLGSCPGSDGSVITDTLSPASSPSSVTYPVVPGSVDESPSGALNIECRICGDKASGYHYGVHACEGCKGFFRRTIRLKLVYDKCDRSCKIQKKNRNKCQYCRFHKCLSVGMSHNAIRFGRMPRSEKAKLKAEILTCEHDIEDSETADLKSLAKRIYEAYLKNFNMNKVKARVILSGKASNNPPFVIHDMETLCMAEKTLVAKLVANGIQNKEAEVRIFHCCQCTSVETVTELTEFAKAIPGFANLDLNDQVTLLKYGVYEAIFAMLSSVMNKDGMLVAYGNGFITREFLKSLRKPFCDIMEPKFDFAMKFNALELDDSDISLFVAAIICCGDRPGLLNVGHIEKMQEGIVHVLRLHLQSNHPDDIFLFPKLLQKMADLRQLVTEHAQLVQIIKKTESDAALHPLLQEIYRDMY
T1 sequence (P19793 1-462 partner): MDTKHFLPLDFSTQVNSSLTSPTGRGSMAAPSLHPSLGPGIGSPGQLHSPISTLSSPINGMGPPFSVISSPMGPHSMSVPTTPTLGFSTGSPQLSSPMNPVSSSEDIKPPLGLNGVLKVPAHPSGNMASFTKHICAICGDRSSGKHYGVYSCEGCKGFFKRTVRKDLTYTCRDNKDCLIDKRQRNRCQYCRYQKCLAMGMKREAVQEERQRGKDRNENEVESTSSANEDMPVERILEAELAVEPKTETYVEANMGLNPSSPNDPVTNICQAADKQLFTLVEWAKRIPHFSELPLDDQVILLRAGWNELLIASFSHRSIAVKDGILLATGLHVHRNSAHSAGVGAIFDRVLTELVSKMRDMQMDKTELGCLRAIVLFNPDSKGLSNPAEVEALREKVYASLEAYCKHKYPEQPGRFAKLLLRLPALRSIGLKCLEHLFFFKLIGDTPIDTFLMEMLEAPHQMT
Assay: PPAR alpha binding assay (SPA)
Conditions: tritiated GW2331, n=3, read-out: Ki PPAR α binding
Source text: The nucleotide sequences encoding full-length PPARα receptor DNA (National Center for Biotechnology Information (NCBI) Reference Sequence NM_005036.4), PPARδ receptor DNA (NCBI Reference Sequence NM_006238.4), PPARγ receptor DNA (NCBI Reference Sequence NM_015869.4) and Retinoid X Receptor (RXR) α DNA (NCBI Reference Sequence NM_002957.4) are synthesized and inserted into pFastBacHTb (Invitrogen) vector in-framed with the N-terminal HIS tag from the vector. […] The protein concentration is determined by Bradford assay using BSA as the standard.
Binding Affinities of Compounds for the PPAR α, δ, γ Receptors are Assessed Using Scintillation Proximity Assay (SPA) Technology.
Biotinylated oligonucleotide(DR2) ^5′[…]^3′ (SEQ ID NO: 1) is used for binding of receptors to Yttrium silicate streptavidin-coated SPA beads (Perkin Elmer). The PPAR α, δ, γ and Retinoid X Receptor (RXR) α receptors (endogenously expressed as heterodimers) are cell lysates from Baculovirus expression systems in Sf9 cells. […] Non-specific binding is determined in the presence of 10000 nM unlabeled GW2331 (Kliewer, S. A. et al Proc. Natl. Acad. Sci. USA (1997), 94: 4318-4323) for the alpha and delta receptors and 2-methyl-2-[4-[3-[propyl[(5-pyridin-2-ylthiophen-2-yl)sulfonyl]amino]-propyl]phenoxy]propanoic (WO 2004/073606) for the gamma receptor. […]

CCCc1c(NC(=O)CC(C)(C)C(=O)[O-])cccc1OCCCOc1cc(O)c(-c2ccc(F)cc2)cc1CC.[Na+] [Example 2, Sodium 4-[[3-[3-[2-ethyl-4-(4-fluorophenyl)-5-hydroxy-phenoxy]propoxy]-2-propyl-phenyl]amino]-2,2-dimethyl-4-oxo-butanoate]
Ki: ~617 nM
